Data from patent US20210171554A1, “BENZOTHIOPHENE ESTROGEN RECEPTOR MODULATORS TO TREAT MEDICAL DISORDERS” (G1 Therapeutics, Inc., priority 2018, published 2021).

Experiments:
[1] = target: T1, estrogen receptor (Homo sapiens, UniProt P03372); assay: Estrogen Receptor (ER) Degradation Assay (In-Cell Western, MCF7 cells); assay type: cell-based; parameters: key to % Estrogen Receptor Remaining: **** denotes 0-0% Estrogen Receptor remaining; *** denotes 417% Estrogen Receptor remaining; ** denotes 719% Estrogen Receptor remaining; * denotes 9110% Estrogen Receptor remaining; conditions: for DC50: 24 hours incubation, In-Cell Western, read-out: Estrogen Receptor Degradation Assay IC50; for % Estrogen Receptor Remaining: vehicle set to 100% ER
T1 construct: MCF7 cells, which are estrogen receptor positive; endogenous in cells; host or cells: MCF7
T1 sequence (P03372 1-595): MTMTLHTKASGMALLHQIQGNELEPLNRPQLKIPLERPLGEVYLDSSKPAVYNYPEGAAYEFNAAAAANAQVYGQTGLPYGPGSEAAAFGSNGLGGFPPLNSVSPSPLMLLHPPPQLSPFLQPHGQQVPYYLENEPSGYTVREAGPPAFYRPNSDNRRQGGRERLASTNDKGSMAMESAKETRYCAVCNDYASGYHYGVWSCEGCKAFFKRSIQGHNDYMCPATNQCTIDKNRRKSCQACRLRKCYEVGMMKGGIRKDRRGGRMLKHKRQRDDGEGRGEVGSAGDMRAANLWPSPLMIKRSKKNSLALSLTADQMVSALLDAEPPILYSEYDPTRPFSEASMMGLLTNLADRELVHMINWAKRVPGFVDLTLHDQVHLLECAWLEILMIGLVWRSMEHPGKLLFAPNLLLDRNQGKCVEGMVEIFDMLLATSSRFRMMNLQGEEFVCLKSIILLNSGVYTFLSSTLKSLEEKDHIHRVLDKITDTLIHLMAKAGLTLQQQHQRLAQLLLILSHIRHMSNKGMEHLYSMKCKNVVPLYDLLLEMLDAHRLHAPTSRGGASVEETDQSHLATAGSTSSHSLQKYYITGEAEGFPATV
Procedure: A screening strategy was implemented utilizing an In-Cell Western assay to measure their ability to degrade the estrogen receptor in vitro. MCF7 cells, which are estrogen receptor positive, were plated at a cell density of […] into black walled clear bottom 96-well plates. Cells were incubated in phenol red free Dulbecco's Modified Eagle Media (DMEM) supplemented with 8% charcoal-stripped fetal bovine calf serum for 24 hours in a humidified 37° C. incubator. Concentrated stock compounds were diluted to 10× in complete media. Compounds were added to the plated cells in a dose-dependent manner ranging from 1E-12 to 1E-05 M and incubated for an additional 24 hours at 37° C. Culture medium was removed from the culture plates by gentle inversion. Cells were fixed in 4% paraformaldehyde in 1×phosphate buffered saline-calcium magnesium free (PBS-CMF) for 15 minutes at room temperature, washed 3 times for 5 minutes each in 1×PBS-CMF. Cells were permeabilized in immunofluorescence (IF) blocking buffer (Cell Signaling #12411) containing 0.3% Triton X100. Cells were washed 3 times for 5 minutes each in 1×PBS-CMF and incubated in estrogen receptor α (D6R2W) rabbit primary antibody (Cell Signaling #13258) diluted 1:300 in IF antibody dilution buffer (Cell Signaling #12378). Cells were washed 3 times for 5 minutes each in 1×PBS-CMF and stained with goat anti-rabbit (Biotium #CF770) secondary antibody diluted 1:2000 in IF antibody dilution buffer and normalizing stain CellTag 700 diluted 1:500 (Licor #926-41090). ER protein expression was assessed by the Licor Odyssey CLx imaging system using Image Studio v5.2. Data is processed utilizing GraphPad Prism 7 by subtracting background from the vehicle and setting the vehicle to 100% ER activity, followed by comparing treated samples to vehicle.
(§1) In the below table for the Estrogen Receptor Degradation Assay and the Human ERα Reporter Assay: […]

[2] = target: T2, human estrogen receptor (ERα) (Homo sapiens, UniProt P03372); assay: Human ERα Reporter Assay (Indigo Biosciences, antagonist mode); assay type: cell-based; conditions: antagonist activity, reporter cells with 17β-estradiol 8E-10 M, 24 hours
T2 construct: purchased Indigo Biosciences #1B00401
T2 sequence (P03372 1-595): T1 sequence (P03372 1-595)
Procedure: All reagents used in this assay was supplied in the Human ERα Reporter Assay by Indigo Biosciences #1B00401. In an effort to screen selective estrogen receptor degraders (SERDs), the Human ERα Reporter Assay, supplied by Indigo Biosciences, was utilized to quantify antagonist functional activity against the human estrogen receptor. Reporter cells were thawed at 37° C. and added to pre-warmed to 37° C. cell recovery medium (CRM). Stock concentration of 17β-estradiol was serially diluted in CRM. Diluted 17β-estradiol was added to CRM containing reporter cells resulting in a working concentration of 1.6 nM (2×). Cells plus 17β-estradiol were dispensed in a kit-supplied white walled 96-well plate. Concentrated stocks of test compounds were diluted to 2× working concentrations in cell screening medium (CSM). 2× concentrated compounds were added to the plated cells in a dose-dependent manner resulting in a final concentration range of 1E-11 to 1E-5 M and a final […] concentration of 8E-10 M. Assay plates were incubated for 24 hours in a humidified 37° C. incubator. Culture medium was removed from the assay plates by inversion. Detection substrate and buffer was warmed to room temperature, mixed thoroughly, and immediately added to the assay plates. Assay plates were incubated for 15 minutes at room temperature protected from light. Luminescence was measured in a Synergy HTX luminescence plate reader. Data is processed utilizing GraphPad Prism 7 by graphing the relative light units measured at each compound concentration.
as §1

Compound | DC50 [1] [nM] | % Estrogen Receptor Remaining [1] | IC50 [2] [nM]
Cc1cc(F)cc(C)c1C(=O)c1sc2c(F)c(O)ccc2c1Oc1ccc(OC2CCN(CCCF)C2)cc1 (stereo in doubt) [Compound 112, (R)-(4-fluoro-2,6-dimethylphenyl)(7-fluoro-3-(4-((1-(3-fluoropropyl)pyrrolidin-3-yl)oxy)phenoxy)-6-hydroxybenzo[b]thiophen-2-yl)methanone] | < 1000 | **** (**** denotes 0-0% Estrogen Receptor remaining) | < 1000
Cc1cc(F)cc(C)c1C(=O)c1sc2cc(O)c(F)cc2c1Oc1ccc(OC2CCN(CCCF)C2)cc1 (stereo in doubt) [Compound 113, (R)-(4-fluoro-2,6-dimethylphenyl)(5-fluoro-3-(4-((1-(3-fluoropropyl)pyrrolidin-3-yl)oxy)phenoxy)-6-hydroxybenzo[b]thiophen-2-yl)methanone] | < 1000 | **** (**** denotes 0-0% Estrogen Receptor remaining) | < 1000
Cc1cc(F)cc(C)c1C(=O)c1sc2cc(O)ccc2c1Oc1ccc(O[C@H]2CCN(CCCF)C2)cc1 [Compound 100, (S)-(4-fluoro-2,6-dimethylphenyl)(3-(4-((1-(3-fluoropropyl)pyrrolidin-3-yl)oxy)phenoxy)-6-hydroxybenzo[b]thiophen-2-yl)methanone] | < 1000 | **** (**** denotes 0-0% Estrogen Receptor remaining) | < 1000
Cc1cc(F)cc(C)c1C(=O)c1sc2cc(O)ccc2c1Oc1ccc(O[C@@H]2CCN(CCCF)C2)cc1 [Compound 102, (R)-(4-fluoro-2,6-dimethylphenyl)(3-(4-((1-(3-fluoropropyl)pyrrolidin-3-yl)oxy)phenoxy)-6-hydroxybenzo[b]thiophen-2-yl)methanone] | < 1000 | **** (**** denotes 0-0% Estrogen Receptor remaining) | < 1000
CCNCCc1ccc(Oc2c(C(=O)c3c(C)cc(F)cc3C)sc3cc(C(=O)O)ccc23)cc1 [Compound 106, 3-(4-(2-(ethylamino)ethyl)phenoxy)-2-(4-fluoro-2,6-dimethylbenzoyl)benzo[b]thiophene-6-carboxylic acid] | < 1000 | *** | < 1000
Cc1cc(F)cc(C)c1C(=O)c1sc2cc(O)ccc2c1-c1ccc(OCCN2CCCC2)cc1 [Compound 109, (4-fluoro-2,6-dimethylphenyl)(6-hydroxy-3-(4-(2-(pyrrolidin-1-yl)ethoxy)phenyl)benzo[b]thiophen-2-yl)methanone] | < 1000 | *** | < 1000
Cc1cc(F)cc(C)c1C(=O)c1sc2cc(O)ccc2c1-c1ccc(O[C@@H]2CCN(CCCF)C2)cc1 [Compound 110, (R)-(4-fluoro-2,6-dimethylphenyl)(3-(4-((1-(3-fluoropropyl)pyrrolidin-3-yl)oxy)phenyl)-6-hydroxybenzo[b]thiophen-2-yl)methanone] | < 1000 | *** | < 1000
Cc1cc(F)cc(C)c1C(=O)c1sc2cc(O)ccc2c1Oc1ccc(OCCN2CCC(CCCF)C2)cc1 (stereo not shown) [Compound 115, (4-fluoro-2,6-dimethylphenyl)(3-(4-(2-(3-(3-fluoropropyl)pyrrolidin-1-yl)ethoxy)phenoxy)-6-hydroxybenzo[b]thiophen-2-yl)methanone] | < 1000 | ** | –
Cc1cc(F)cc(C)c1C(=O)c1sc2cc(S(N)(=O)=O)ccc2c1Oc1ccc(O[C@H]2CCN(CCCF)C2)cc1 [Compound 116, (S)-2-(4-fluoro-2,6-dimethylbenzoyl)-3-(4-((1-(3-fluoropropyl)pyrrolidin-3-yl)oxy)phenoxy)benzo[b]thiophene-6-sulfonamide] | < 1000 | **** (**** denotes 0-0% Estrogen Receptor remaining) | –

Second part, the compound after the results:

DC50 [1] [nM] | % Estrogen Receptor Remaining [1] | IC50 [2] [nM] | Compound
< 1000 | *** | < 1000 | Cc1cc(F)cc(C)c1C(=O)c1sc2cc(O)ccc2c1Oc1ccc(O[C@H]2CCNC2)cc1 [Compound 101, (S)-(4-fluoro-2,6-dimethylphenyl)(6-hydroxy-3-(4-(pyrrolidin-3-yloxy)phenoxy)benzo[b]thiophen-2-yl)methanone]
< 1000 | ** | < 50000 | Cc1cc(F)cc(C)c1C(=O)c1sc2cc(O)ccc2c1-c1ccc(O[C@H]2CCN(CCCF)C2)cc1 [Compound 108, (S)-(4-fluoro-2,6-dimethylphenyl)(3-(4-((1-(3-fluoropropyl)pyrrolidin-3-yl)oxy)phenyl)-6-hydroxybenzo[b]thiophen-2-yl)methanone]
